From patent publication US20220340597A1, “HEXAHYDRO-1H-PYRAZINO[1,2-A]PYRAZINE COMPOUNDS FOR THE TREATMENT OF AUTOIMMUNE DISEASE” (Hoffmann-La Roche Inc., priority 2019, published 2022)

Target: T1, human TLR7 (Homo sapiens, UniProt Q9NYK1)
T1 construct: host or cells: HEK293 (HEK-Blue hTLR7)
T1 sequence (Q9NYK1 27-1049): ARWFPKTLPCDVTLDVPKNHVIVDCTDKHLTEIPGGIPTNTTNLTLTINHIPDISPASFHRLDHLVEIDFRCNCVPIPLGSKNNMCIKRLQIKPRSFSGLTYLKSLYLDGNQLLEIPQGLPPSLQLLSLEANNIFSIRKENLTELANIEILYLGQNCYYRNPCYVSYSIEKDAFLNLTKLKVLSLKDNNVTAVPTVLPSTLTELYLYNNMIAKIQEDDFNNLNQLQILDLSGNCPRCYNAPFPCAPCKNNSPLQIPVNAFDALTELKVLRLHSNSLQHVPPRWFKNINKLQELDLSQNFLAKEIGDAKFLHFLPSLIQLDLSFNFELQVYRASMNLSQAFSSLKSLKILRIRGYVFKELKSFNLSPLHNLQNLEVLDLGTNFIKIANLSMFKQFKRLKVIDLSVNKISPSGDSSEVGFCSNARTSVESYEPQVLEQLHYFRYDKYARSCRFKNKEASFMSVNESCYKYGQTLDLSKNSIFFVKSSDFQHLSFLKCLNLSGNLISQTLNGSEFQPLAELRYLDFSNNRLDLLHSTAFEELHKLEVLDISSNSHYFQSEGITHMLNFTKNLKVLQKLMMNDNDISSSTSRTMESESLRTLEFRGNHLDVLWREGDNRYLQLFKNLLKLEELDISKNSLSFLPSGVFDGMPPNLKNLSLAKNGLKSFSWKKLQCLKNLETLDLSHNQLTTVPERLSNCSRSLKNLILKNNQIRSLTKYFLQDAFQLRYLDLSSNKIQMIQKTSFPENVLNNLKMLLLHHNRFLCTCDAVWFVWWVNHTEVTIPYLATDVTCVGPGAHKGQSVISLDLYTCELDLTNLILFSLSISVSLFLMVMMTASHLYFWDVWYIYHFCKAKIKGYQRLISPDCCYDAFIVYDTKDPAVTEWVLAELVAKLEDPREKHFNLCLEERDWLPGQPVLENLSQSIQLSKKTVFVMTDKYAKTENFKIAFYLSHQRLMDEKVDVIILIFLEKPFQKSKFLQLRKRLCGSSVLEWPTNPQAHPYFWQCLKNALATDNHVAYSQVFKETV
Experiment: HEK293-Blue-hTLR-7 cells assay
Format: cell-based
Conditions: HEK293-Blue-hTLR7 cells, R848 stimulation, 20 hrs, SEAP reporter; read-out: HEK/hTLR7 IC50

Compound `C[C@@H]1CN(c2ccc(C#N)c3ncccc23)C[C@@H]2CN(Cc3ccnc(N4CCNCC4)c3)CCN21` (relative stereo) [Example 3] has an IC50 of 20 nM.
In the case of `[2H]c1ccc2c(N3C[C@@H]4CN(Cc5ccc(N6CC[C@@](C)(N)C6)nc5C)CCN4[C@H](C)C3)ccc(C#N)c2n1` [Example 81, 5-[(4R,9aS)-8-[[6-[(3R)-3-amino-3-methyl-pyrrolidin-1-yl]-2-methyl-3-pyridyl]methyl]-4-methyl-3,4,6,7,9,9a-hexahydro-1H-pyrazino[1,2-a]pyrazin-2-yl]-2-deuterio-quinoline-8-carbonitrile], the IC50 is reported as 16 nM.
In the case of `[2H]c1ccc2c(N3C[C@@H]4CN(CCc5ccc(N6CC[C@@](C)(N)C6)nc5)CCN4[C@H](C)C3)ccc(C#N)c2n1` [Example 84, 5-[(4R,9aS)-8-[2-[6-[(3R)-3-amino-3-methyl-pyrrolidin-1-yl]-3-pyridyl]ethyl]-4-methyl-3,4,6,7,9,9a-hexahydro-1H-pyrazino[1,2-a]pyrazin-2-yl]-2-deuterio-quinoline-8-carbonitrile], the IC50 is reported as 16 nM.
Work on `Cc1nc(N2CCNC[C@@H]2C)ccc1CN1CCN2[C@@H](C1)CN(c1ccc(C#N)c3ncccc13)C[C@H]2C` [Example 85, 5-[(4R,9aS)-4-methyl-8-[[2-methyl-6-[(2S)-2-methylpiperazin-1-yl]-3-pyridyl]methyl]-3,4,6,7,9,9a-hexahydro-1H-pyrazino[1,2-a]pyrazin-2-yl]quinoline-8-carbonitrile] yielded an IC50 of 19 nM.
`Cc1nc(N2CCN[C@H](C)C2)ccc1CN1CCN2[C@@H](C1)CN(c1ccc(C#N)c3ncccc13)C[C@H]2C` [Example 86, 5-[(4R,9aS)-4-methyl-8-[[2-methyl-6-[(3R)-3-methylpiperazin-1-yl]-3-pyridyl]methyl]-3,4,6,7,9,9a-hexahydro-1H-pyrazino[1,2-a]pyrazin-2-yl]quinoline-8-carbonitrile] showed an IC50 of 15 nM.
`[2H]c1ccc2c(N3C[C@@H]4CN(Cc5cnc(N6CCNCC6)cc5C)CCN4[C@H](C)C3)ccc(C#N)c2n1` [Example 87, 5-[(4R,9aS)-4-methyl-8-[(4-methyl-6-piperazin-1-yl-3-pyridyl)methyl]-3,4,6,7,9,9a-hexahydro-1H-pyrazino[1,2-a]pyrazin-2-yl]-2-deuterio-quinoline-8-carbonitrile] was tested, and the IC50 was 17 nM.
For `[2H]c1ccc2c(N3C[C@@H]4CN(Cc5nc(N6CCNCC6)ccc5C)CCN4[C@H](C)C3)ccc(C#N)c2n1` [Example 88, 5-[(4R,9aS)-4-methyl-8-[(3-methyl-6-piperazin-1-yl-2-pyridyl)methyl]-3,4,6,7,9,9a-hexahydro-1H-pyrazino[1,2-a]pyrazin-2-yl]-2-deuterio-quinoline-8-carbonitrile], the IC50 was 40 nM.
In the case of `[2H]c1ccc2c(N3C[C@@H]4CN(CCc5ccnc(N6C[C@@H](N)[C@@H](F)C6)c5)CCN4[C@H](C)C3)ccc(C#N)c2n1` [Example 89, 5-[(4R,9aS)-8-[2-[2-[(3R,4S)-3-amino-4-fluoro-pyrrolidin-1-yl]-4-pyridyl]ethyl]-4-methyl-3,4,6,7,9,9a-hexahydro-1H-pyrazino[1,2-a]pyrazin-2-yl]-2-deuterio-quinoline-8-carbonitrile], the IC50 is reported as 28 nM.
Work on `[2H]c1ccc2c(N3C[C@@H]4CN(Cc5ccc(N6CC7CC(C6)N7)nc5C)CCN4[C@H](C)C3)ccc(C#N)c2n1` [Example 90, 5-[(4R,9aS)-8-[[6-(3,6-diazabicyclo[3.1.1]heptan-3-yl)-2-methyl-3-pyridyl]methyl]-4-methyl-3,4,6,7,9,9a-hexahydro-1H-pyrazino[1,2-a]pyrazin-2-yl]-2-deuterio-quinoline-8-carbonitrile] yielded an IC50 of 13 nM.
With `[2H]c1ccc2c(N3C[C@@H]4CN(Cc5ccc(N6CC7CCC(C6)N7)nc5C)CCN4[C@H](C)C3)ccc(C#N)c2n1` [Example 91, 5-[(4R,9aS)-8-[[6-(3,8-diazabicyclo[3.2.1]octan-3-yl)-2-methyl-3-pyridyl]methyl]-4-methyl-3,4,6,7,9,9a-hexahydro-1H-pyrazino[1,2-a]pyrazin-2-yl]-2-deuterio-quinoline-8-carbonitrile] the IC50 was 15 nM.
In the case of `[2H]c1ccc2c(N3C[C@@H]4CN(Cc5cnc(N6C[C@@H]7C[C@H]6CN7)cc5C)CCN4[C@H](C)C3)ccc(C#N)c2n1` [Example 94, 5-[(4R,9aS)-8-[[6-[(1S,4S)-2,5-diazabicyclo[2.2.1]heptan-2-yl]-4-methyl-3-pyridyl]methyl]-4-methyl-3,4,6,7,9,9a-hexahydro-1H-pyrazino[1,2-a]pyrazin-2-yl]-2-deuterio-quinoline-8-carbonitrile], the IC50 is reported as 25 nM.
`[2H]c1ccc2c(N3C[C@@H]4CN(c5ncc(N6C[C@@H]7C[C@H]6CN7)cc5C)CCN4[C@H](C)C3)ccc(C#N)c2n1` [Example 95, 5-[(4R,9aR)-8-[5-[(1S,4S)-2,5-diazabicyclo[2.2.1]heptan-2-yl]-3-methyl-2-pyridyl]-4-methyl-3,4,6,7,9,9a-hexahydro-1H-pyrazino[1,2-a]pyrazin-2-yl]-2-deuterio-quinoline-8-carbonitrile] gave an IC50 of 2 nM.
`[2H]c1ccc2c(N3C[C@@H]4CN(c5ncc(N6C[C@@H](N)[C@@H](OC)C6)cc5C)CCN4[C@H](C)C3)ccc(C#N)c2n1` [Example 96, 5-[(4R,9aR)-8-[5-[(3R,4S)-3-amino-4-methoxy-pyrrolidin-1-yl]-3-methyl-2-pyridyl]-4-methyl-3,4,6,7,9,9a-hexahydro-1H-pyrazino[1,2-a]pyrazin-2-yl]-2-deuterio-quinoline-8-carbonitrile] gave an IC50 of 2 nM.
`[2H]c1ccc2c(N3C[C@@H]4CN(c5ncc(N6CC[C@@](C)(N)C6)cc5C)CCN4[C@H](C)C3)ccc(C#N)c2n1` [Example 97, 5-[(4R,9aR)-8-[5-[(3R)-3-amino-3-methyl-pyrrolidin-1-yl]-3-methyl-2-pyridyl]-4-methyl-3,4,6,7,9,9a-hexahydro-1H-pyrazino[1,2-a]pyrazin-2-yl]-2-deuterio-quinoline-8-carbonitrile] gave an IC50 of 2 nM.
Compound `[2H]c1ccc2c(N3C[C@@H]4CN(c5ncc(N6C[C@@H](N)[C@H](OC)C6)cc5C)CCN4[C@H](C)C3)ccc(C#N)c2n1` [Example 99, 5-[(4R,9aR)-8-[5-[(3R,4R)-3-amino-4-methoxy-pyrrolidin-1-yl]-3-methyl-2-pyridyl]-4-methyl-3,4,6,7,9,9a-hexahydro-1H-pyrazino[1,2-a]pyrazin-2-yl]-2-deuterio-quinoline-8-carbonitrile] has an IC50 of 1 nM.
With `[2H]c1ccc2c(N3C[C@@H]4CN(c5ncc(N6C[C@H]7NCCO[C@@H]7C6)cc5C)CCN4[C@H](C)C3)ccc(C#N)c2n1` [Example 100, 5-[(4R,9aR)-8-[5-[(4aR,7aR)-3,4,4a,5,7,7a-hexahydro-2H-pyrrolo[3,4-b][1,4]oxazin-6-yl]-3-methyl-2-pyridyl]-4-methyl-3,4,6,7,9,9a-hexahydro-1H-pyrazino[1,2-a]pyrazin-2-yl]-2-deuterio-quinoline-8-carbonitrile] the IC50 was 1 nM.
